Measured values from paper PMC4657531 (EXCLI Journal, 2013).

Tested on: β-glucosidase
Assay: DNS reducing sugar assay, Lineweaver-Burk plot
Format: biochemical, Penicillium simplicissimum
Settings: citrate buffer pH 4.8, 50 °C, 30 min; salicin 5-50 mg/ml

Km: 14.881 mg/mL
Structure (SMILES): OCc1ccccc1O[C@@H]1O[C@H](CO)[C@@H](O)[C@H](O)[C@H]1O [salicin]
